From ChEMBL document CHEMBL1268988, “An in situ oxidation strategy towards overcoming hERG affinity” (Bioorg Med Chem Lett, 2010)

Legend:
[1] = Inhibition of HIV1 gp160 by cell-cell fusion inhibition assay; set-up: species or system Human immunodeficiency virus 1
[2] = Permeability from apical to basolateral side in human Caco-2 cells at 5 uM; type: ADME, cell-based; settings: read-out: permeability
[3] = Permeability from apical to basolateral side of human Caco-2 cells at 5 uM; type: ADME, cell-based; settings: read-out: permeability
[4] = target: T1, Voltage-gated inwardly rectifying potassium channel KCNH2 (Homo sapiens, UniProt Q12809); experiment: Inhibition of human ERG at 10 uM
T1 sequence (Q12809 whole entry): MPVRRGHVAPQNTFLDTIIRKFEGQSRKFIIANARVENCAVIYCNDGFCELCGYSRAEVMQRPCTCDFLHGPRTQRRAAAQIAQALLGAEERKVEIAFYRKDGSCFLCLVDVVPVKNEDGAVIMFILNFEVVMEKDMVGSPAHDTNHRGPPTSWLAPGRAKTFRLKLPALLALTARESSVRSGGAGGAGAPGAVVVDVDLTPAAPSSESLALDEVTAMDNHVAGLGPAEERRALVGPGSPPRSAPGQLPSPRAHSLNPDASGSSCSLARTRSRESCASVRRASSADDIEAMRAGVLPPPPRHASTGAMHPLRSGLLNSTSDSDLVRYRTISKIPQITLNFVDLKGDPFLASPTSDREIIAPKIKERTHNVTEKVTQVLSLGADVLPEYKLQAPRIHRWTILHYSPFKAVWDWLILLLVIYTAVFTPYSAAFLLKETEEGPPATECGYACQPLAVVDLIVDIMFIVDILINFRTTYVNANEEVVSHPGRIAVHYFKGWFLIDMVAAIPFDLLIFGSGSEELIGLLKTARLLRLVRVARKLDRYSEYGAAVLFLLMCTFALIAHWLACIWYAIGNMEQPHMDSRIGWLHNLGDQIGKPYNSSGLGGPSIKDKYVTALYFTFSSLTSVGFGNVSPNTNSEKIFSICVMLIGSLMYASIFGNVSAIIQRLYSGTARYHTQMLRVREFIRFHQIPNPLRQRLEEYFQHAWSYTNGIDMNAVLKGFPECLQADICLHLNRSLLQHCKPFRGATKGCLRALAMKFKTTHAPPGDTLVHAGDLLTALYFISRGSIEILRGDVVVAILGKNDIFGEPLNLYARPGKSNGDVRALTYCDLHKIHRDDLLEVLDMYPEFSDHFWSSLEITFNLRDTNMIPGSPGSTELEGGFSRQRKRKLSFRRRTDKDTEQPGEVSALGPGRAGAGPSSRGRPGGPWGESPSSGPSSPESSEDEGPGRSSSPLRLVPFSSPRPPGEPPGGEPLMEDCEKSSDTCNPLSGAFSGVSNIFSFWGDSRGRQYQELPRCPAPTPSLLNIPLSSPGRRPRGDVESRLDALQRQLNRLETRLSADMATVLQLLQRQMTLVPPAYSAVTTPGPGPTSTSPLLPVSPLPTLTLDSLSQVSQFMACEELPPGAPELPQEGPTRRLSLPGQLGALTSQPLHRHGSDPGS

[5] = Metabolic stability in human liver microsomes assessed as intrinsic clearance at 1 uM; type: ADME, Microsome
[6] = Membrane permeability across dog RRCK at 2 uM; type: ADME, cell-based, Canis lupus familiaris, MDCKII-LE; settings: MDCK, read-out: permeability
[7] = Lipophilicity, log D of the compound; type: physicochemical; settings: octanol/water
[8] = Absorption in rat at 3 mg/kg, po; type: ADME, organism-based; set-up: dose 3 mg/kg, route oral; settings: in vivo, read-out: Activity
[9] = target: T1, Voltage-gated inwardly rectifying potassium channel KCNH2; experiment: Inhibition of human ERG
Rattus norvegicus [10] = experiment: fAUC in rat at 1 mg/kg, iv; type: ADME, organism-based; set-up: dose 1 mg/kg, route intravenous; settings: in vivo
[11] = AUC in rat at 1 mg/kg, iv; type: ADME, organism-based; set-up: dose 1 mg/kg, route intravenous; settings: plasma
[12] = Terminal half life in rat at 1 mg/kg, iv; type: ADME, organism-based; set-up: dose 1 mg/kg, route intravenous; settings: in vivo, read-out: beta t1/2 (converted)
Rattus norvegicus [13] = experiment: fAUC in rat at 3 mg/kg, po; type: ADME, organism-based; set-up: dose 3 mg/kg, route oral; settings: in vivo
[14] = Metabolic stability in rat liver microsomes assessed as intrinsic clearance; type: ADME, Microsome
[15] = Clearance in rat at 1 mg/kg, iv; type: ADME, organism-based; set-up: dose 1 mg/kg, route intravenous; settings: in vivo
[16] = Oral bioavailability in rat at 3 mg/kg, po; type: ADME, organism-based; settings: in vivo
[17] = AUC in rat at 3 mg/kg, po; type: ADME, organism-based; set-up: dose 3 mg/kg, route oral; settings: plasma
Rattus norvegicus [18] = experiment: Unbound clearance in rat at 1 mg/kg, iv; type: ADME, organism-based; set-up: dose 1 mg/kg, route intravenous; settings: in vivo
[19] = Volume of distribution in rat at 1 mg/kg, iv; type: ADME, organism-based; set-up: dose 1 mg/kg, route intravenous; settings: in vivo
Rattus norvegicus [20] = experiment: Unbound volume of distribution in rat at 1 mg/kg, iv; type: ADME, organism-based; set-up: dose 1 mg/kg, route intravenous; settings: in vivo
[21] = Oral bioavailability in rat at 1 mg/kg, iv and 2 mg/kg, po; type: ADME, organism-based; settings: in vivo
[22] = Clearance in rat at 1 mg/kg, iv and 2 mg/kg, po; type: ADME, organism-based; settings: in vivo
[23] = Half life in rat at 1 mg/kg, iv and 2 mg/kg, po; type: ADME, organism-based; settings: in vivo
[24] = Volume of distribution in rat at 1 mg/kg, iv and 2 mg/kg, po; type: ADME, organism-based; settings: in vivo

Structure (SMILES) | IC50 [1] [nM] | inhibition (INH) [4] | microsomal CLint at 1 µM [5] [µL/min/mg] | Papp at 2 µM [6] [×10⁻⁶ cm/s] | also measured
Cc1nc2ccccc2n1C1C[C@H]2CC[C@@H](C1)N2CC[C@H](NC(=O)c1ccc(S(C)(=O)=O)cc1)c1cccc(F)c1 (stereo not given in full) | 40 | – | – | – | –
Cc1nc2ccc(F)cc2n1C1C[C@H]2CC[C@@H](C1)N2CCC(NC(=O)C1CC[S+]([O-])CC1)c1cccc(F)c1 (stereo not given in full) | 0.01 | Not Active | – | – | Papp A→B at 5 µM [2]: 18 ×10⁻⁶ cm/s; Papp A→B at 5 µM [3]: 2 ×10⁻⁶ cm/s
Cc1nc2cc(F)ccc2n1C1C[C@H]2CC[C@@H](C1)N2CCC(NC(=O)C1CC[S+]([O-])CC1)c1cccc(F)c1 (stereo not given in full) | 0.4 | Not Active | 93 | 2 | –
CCc1nc2ccccc2n1C1C[C@H]2CC[C@@H](C1)N2CCC(NC(=O)C1CC[S+]([O-])CC1)c1cccc(F)c1 (stereo not given in full) | 0.05 | Not Active | 89 | 2 | –
Cc1nc2ccc(F)cc2n1C1C[C@H]2CC[C@@H](C1)N2CC[C@H](NC(=O)C1CCS(=O)(=O)CC1)c1cccc(F)c1 (stereo not given in full) | 0.01 | – | 10 | 2 | Papp A→B at 5 µM [2]: 31 ×10⁻⁶ cm/s; logD [7]: 2.9; Papp A→B at 5 µM [3]: 5 ×10⁻⁶ cm/s; Fa [8]: 3%
Cc1nc2cc(F)ccc2n1C1C[C@H]2CC[C@@H](C1)N2CC[C@H](NC(=O)C1CCS(=O)(=O)CC1)c1cccc(F)c1 (stereo not given in full) | 0.03 | Not Active | 14 | 2 | Papp A→B at 5 µM [2]: 21 ×10⁻⁶ cm/s; Papp A→B at 5 µM [3]: 3 ×10⁻⁶ cm/s
CCc1nc2ccccc2n1C1C[C@H]2CC[C@@H](C1)N2CC[C@H](NC(=O)C1CCS(=O)(=O)CC1)c1cccc(F)c1 (stereo not given in full) | 0.3 | Not Active | 25 | 3 | –
Cc1nc2ccccc2n1C1C[C@H]2CC[C@@H](C1)N2CC[C@H](NC(=O)c1ccc([S+](C)[O-])cc1)c1cccc(F)c1 (stereo not given in full) | 40 | – | – | – | –
Cc1nc2ccncc2n1C1C[C@H]2CC[C@@H](C1)N2CC[C@H](NC(=O)c1ccc([S+](C)[O-])cc1)c1cccc(F)c1 (stereo not given in full) | 2 | – | – | – | –
Cc1nc2ccc(F)cc2n1C1C[C@H]2CC[C@@H](C1)N2CC[C@H](NC(=O)c1ccc([S+](C)[O-])cc1)c1cccc(F)c1 (stereo not given in full) | 1 | – | – | – | –
Cc1nc2cc(F)ccc2n1C1C[C@H]2CC[C@@H](C1)N2CC[C@H](NC(=O)c1ccc([S+](C)[O-])cc1)c1cccc(F)c1 (stereo not given in full) | 36 | – | – | – | –
Cc1nc2ccncc2n1C1C[C@H]2CC[C@@H](C1)N2CC[C@H](NC(=O)c1ccc(S(C)(=O)=O)cc1)c1cccc(F)c1 (stereo not given in full) | 1 | – | – | – | –
Cc1nc2cc(F)ccc2n1C1C[C@H]2CC[C@@H](C1)N2CC[C@H](NC(=O)c1ccc(S(C)(=O)=O)cc1)c1cccc(F)c1 (stereo not given in full) | 8 | – | – | – | –
Cc1nc2cc(F)ccc2n1C1C[C@H]2CC[C@@H](C1)N2CC[C@H](NC(=O)c1cc[n+]([O-])cc1)c1cccc(F)c1 (stereo not given in full) | 0.1 | – | – | – | –
CCc1nc2ccccc2n1C1C[C@H]2CC[C@@H](C1)N2CC[C@H](NC(=O)c1cc[n+]([O-])cc1)c1cccc(F)c1 (stereo not given in full) | 24 | – | – | – | –
Cc1nc2ccc(F)cc2n1C1C[C@H]2CC[C@@H](C1)N2CC[C@H](NC(=O)c1ccc[n+]([O-])c1)c1cccc(F)c1 (stereo not given in full) | 0.5 | – | – | – | –
Cc1nc2cc(F)ccc2n1C1C[C@H]2CC[C@@H](C1)N2CC[C@H](NC(=O)c1ccc[n+]([O-])c1)c1cccc(F)c1 (stereo not given in full) | 1 | – | – | – | –
Cc1nc2ccncc2n1C1C[C@H]2CC[C@@H](C1)N2CC[C@H](NC(=O)C1CCS(=O)(=O)CC1)c1cccc(F)c1 (stereo not given in full) | 0.2 | Not Active | < 8 | 1 | –
Cc1nc2ccncc2n1C1C[C@H]2CC[C@@H](C1)N2CC[C@H](NC(=O)c1cc[n+]([O-])cc1)c1cccc(F)c1 (stereo not given in full) | 4 | – | – | – | –
Cc1nc2ccccc2n1C1C[C@H]2CC[C@@H](C1)N2CC[C@H](NC(=O)C1CCSCC1)c1cccc(F)c1 (stereo not given in full) | 0.2 | – | > 320 | 29 | IC50 [9]: 740 nM; fAUC (Rattus norvegicus [10]): 6.7 ng·h/mL; logD [7]: 3.7; AUC [11]: 270 ng·h/mL; half-life [12]: 0.8 h; fAUC (Rattus norvegicus [13]): 0.25 ng·h/mL; microsomal CLint [14]: > 510 µL/min/mg; clearance [15]: 60 mL/min/kg; bioavailability [16]: 1%; AUC [17]: 10 ng·h/mL; CL free (Rattus norvegicus [18]): 2431 mL/min/kg; Vd [19]: 2 L/kg; Vdu (Rattus norvegicus [20]): 81 L/kg; Fa [8]: 9%
Cc1nc2ccccc2n1C1C[C@H]2CC[C@@H](C1)N2CC[C@H](NC(=O)[C@H]1CC[S@@+]([O-])CC1)c1cccc(F)c1 (stereo not given in full) | – | – | 36 | 1 | Papp A→B at 5 µM [2]: 20 ×10⁻⁶ cm/s; fAUC (Rattus norvegicus [13]): 1.7 ng·h/mL; Papp A→B at 5 µM [3]: 2 ×10⁻⁶ cm/s; AUC [17]: 11 ng·h/mL
Cc1nc2ccccc2n1C1C[C@H]2CC[C@@H](C1)N2CC[C@H](NC(=O)[C@H]1CC[S@+]([O-])CC1)c1cccc(F)c1 (stereo not given in full) | – | – | 111 | 1 | fAUC (Rattus norvegicus [13]): 0.3 ng·h/mL; AUC [17]: 2 ng·h/mL
Cc1nc2ccccc2n1C1C[C@H]2CC[C@@H](C1)N2CC[C@H](NC(=O)C1CC[S+]([O-])CC1)c1cccc(F)c1 (stereo not given in full) | 0.2 | Not Active | 38 | 0.8 | bioavailability [21]: < 1%; IC50 [9]: > 10000 nM; logD [7]: 2.3; clearance [22]: 104 mL/min/kg; half-life [23]: 2.6 h; Vd [24]: 23 L/kg
Cc1nc2ccccc2n1C1C[C@H]2CC[C@@H](C1)N2CC[C@H](NC(=O)C1CCS(=O)(=O)CC1)c1cccc(F)c1 (stereo not given in full) | 0.2 | Not Active | 23 | 4 | Papp A→B at 5 µM [2]: 20 ×10⁻⁶ cm/s; fAUC (Rattus norvegicus [13]): < 0.1 ng·h/mL; Papp A→B at 5 µM [3]: < 1 ×10⁻⁶ cm/s; AUC [17]: < 1 ng·h/mL
CC[S+]([O-])CC(=O)N[C@@H](CCN1[C@@H]2CC[C@H]1CC(n1c(C)nc3ccccc31)C2)c1cccc(F)c1 (stereo not given in full) | > 100 | – | – | – | –
Cc1nc2ccccc2n1C1C[C@H]2CC[C@@H](C1)N2CC[C@H](NC(=O)c1cc[n+]([O-])cc1)c1cccc(F)c1 (stereo not given in full) | 4 | – | – | – | –
Cc1nc2ccccc2n1C1C[C@H]2CC[C@@H](C1)N2CC[C@H](NC(=O)c1ccc[n+]([O-])c1)c1cccc(F)c1 (stereo not given in full) | 5 | – | – | – | –
Cc1nc2ccccc2n1C1C[C@H]2CC[C@@H](C1)N2CC[C@H](NC(=O)c1cccc[n+]1[O-])c1cccc(F)c1 (stereo not given in full) | > 100 | – | – | – | –
Cc1nc2cnccc2n1C1C[C@H]2CC[C@@H](C1)N2CC[C@H](NC(=O)C1CC[S+]([O-])CC1)c1cccc(F)c1 (stereo not given in full) | 4 | – | – | – | –
Cc1nc2ccncc2n1C1C[C@H]2CC[C@@H](C1)N2CCC(NC(=O)C1CC[S+]([O-])CC1)c1cccc(F)c1 (stereo not given in full) | 1 | Not Active | 50 | – | Papp A→B at 5 µM [2]: 2 ×10⁻⁶ cm/s; Papp A→B at 5 µM [3]: 2 ×10⁻⁶ cm/s
